Data taken from patent publication US20190160035A1, “METHOD OF TREATMENT” (QBIOTICS LIMITED, priority 2016, published 2019).
Several values for one entry are separate records, joined by “and”; a condition that tells them apart may be missing. Equal entries are not always repeated.

Key:
[1] = test system: cutaneous MCT or subcutaneous MCT; test: Example 4: long term follow up of Example 1 dogs for tumor recurrence; format: in vivo; as to Tumor recurrence at case follow-up, approx. month 2 after last treatment: key: NTR = no tumor recurrence; TR = tumor recurrence; as to Tumor recurrence at case follow-up, approx. month 3 after last treatment: key: NTR = no tumor recurrence; TR = tumor recurrence; as to Tumor recurrence at case follow-up, approx. month 4 after last treatment: key: NTR = no tumor recurrence; TR = tumor recurrence; as to Tumor recurrence at case follow-up, approx. month 5 after last treatment: key: NTR = no tumor recurrence; TR = tumor recurrence
Protocol: The dogs of in Example 1, treated with 1.0 mg Compound 1 per mL in 40% propylene glycol solution (0.4 mL/cm^3 tumor), were followed up post-treatment.
The attending veterinarian advised dog C03-T-04 enter a new treatment program for residual tissue mass treatment due to a putative immune deficiency, and dog C03-T-07 died on Day 4 post treatment.

[2] = test system: soft tissue sarcoma (STS); test: Example 6: treatment of soft tissue sarcoma with intratumoral Compound 1, tumor response; format: in vivo, dogs; details: per dog, Compound 1 1.0 mg/mL intratumoral, first treatment
Source text: Dogs were selected for the study if they met the criteria in Table 1 (Example 1) but where the dog has at least one STS. Study dogs were managed with due regard for their welfare. All animals were client-owned, treated by Australian registered veterinarians, and cases managed under their direct supervision. An enrolled dog could be removed from the study prior to study completion under the following circumstances: • 1. If at any time during the study, in the opinion of the attending veterinarian, the dog's welfare is at risk due to non-response of the tumor to Compound 1 treatment or due to a serious adverse event, the veterinarian could elect to withdraw the dog from the study. Following withdrawal, the dog's attending veterinarian could then administer supportive treatment and veterinary care that they deem is appropriate and in the best interest of the animal. • 2. […]
• 1. […] The total calculated volume of the selected STS was confirmed as ≤12.5 cm3 (determined as ½×length (cm)×width (cm)×depth (cm)). • 5. The calculated dose of drug for the dog was confirmed as ≤0.25 mg Compound 1 per kg at the Day 0 visit (maximum dose of 5 mg Compound 1). • 6. The drug was provided to veterinarians as a 1 mg/mL Compound 1 formulation in ready to use form. • 7. […] Treated tumors were observed regularly and observations recorded at days 1, 7 (+2), 14 (+2) and 28 (+2) days post-treatment. • 10. […]

[3] = test system: MCT (cutaneous and subcutaneous); test: Example 7: treatment of MCT (repeat of Example 1), complete response and healing by time point; format: in vivo, dogs; details: for Complete response: Cumulative % / Complete response: Number of tumors on given study day: 11 treated tumors in 10 dogs; for Healing: Cumulative % / Healing: Number of tumor sites healed on given study day: 11 treated tumors
Protocol: The study of Example 1 was repeated. The drug used was Compound 1 formulated in 40% propylene glycol and 30 MM acetate buffer at pH 4.2.
While tumor evaluation and measurement data for 11 cases are presented, this actually represents only 10 dogs, one of which had two tumors treated consecutively (identified as cases SI-01 and SI-02). PK sampling was performed only once for this dog (SI-01).
Of the other ten tumors, nine were considered CR by day 7 (+2) and one was CR by day 14 (+2). The investigator also reported that all of these tumors remained a CR on day 28 […].
Healing was more variable for the cases, with one healed at the day 14 visit and over half the tumor sites healed by the day 28 visit. The two cases with the largest tumor volumes at day 0 (SI-04 5.6 cm^3, and SI-11 6.8 cm^3) required healing time beyond the day 28 visit, i.e., an additional four weeks for SI-04 and an additional 19.7 weeks for SI-11. For SI-11, it was noted the dog was licking the tumor site and the investigator felt it may have prolonged the healing time. The investigator believed the wound required intervention on this case that included debridement once on study day 56 followed by periodic bandage replacement.

With `C/C=C(\C)C(=O)O[C@@H]1[C@@H](C)[C@@]2(O)[C@H]([C@@H]3C(C)(C)[C@]13OC(=O)[C@@H](C)CC)[C@@H]1O[C@]1(CO)[C@@H](O)[C@]1(O)C(=O)C(C)=C[C@H]12` [Compound 1, 12-tigloyl-13-(2-methylbutanoyl)-6,7-epoxy-4,5,9,12,13,20-hexahydroxy-1-tigliaen-3-one] the “Time post treatment at which tumor recurrence was identified” value ([1]; 196: dog C03-N-01 (approx. 6 months), 359: dog C03-T-02 (approx. 12 months)) was 196 days and 359 days, the “Time the dog remained tumor free post treatment” value ([1]; dog C03-T-06, approx. 8 months, until euthanased for diabetes and kidney failure) was 265 days and the “Number of dogs with residual tumor mass on Days 28-29 post treatment (retreated)” value ([1]; dogs C03-N-03, C03-T-01, C03-T-03) was 3. For the same molecule, the “Tumor recurrence post-repeat treatment” value ([1]; dogs C03-N-03, C03-T-01, C03-T-03, examined out to 389, 339 and 346 days) was “None of these dogs exhibited tumor recurrence”, the “Number of dogs treated successfully with a single treatment and no tumor recurrence within the duration of assessment” value ([1]; of ten dogs available for follow up) was 5 and the “Tumor recurrence at case follow-up, approx. month 1 after last treatment” value ([1]; one value per dog) was “NTR (3×) and TR (TR = tumor recurrence)”. For the same molecule, the “Tumor recurrence at case follow-up, approx. month 2 after last treatment” value ([1]; one value per dog) was “NTR”, the “Tumor recurrence at case follow-up, approx. month 3 after last treatment” value ([1]; one value per dog) was “NTR” and the “Tumor recurrence at case follow-up, approx. month 4 after last treatment” value ([1]; one value per dog) was “NTR”. The “Tumor recurrence at case follow-up, approx. month 5 after last treatment” value ([1]; one value per dog) was “NTR”, the “Tumor recurrence at case follow-up, approx. month 6 after last treatment” value ([1]; one value per dog) was “NTR” and the “Tumor recurrence at case follow-up, approx. month 7 after last treatment” value ([1]; one value per dog) was “NTR”. The “Tumor recurrence at case follow-up, approx. month 9 after last treatment” value ([1]; one value per dog) was “NTR”, the “Tumor recurrence at case follow-up, approx. month 11 after last treatment” value ([1]; one value per dog) was “NTR” and the “Tumor recurrence at case follow-up, approx. month 12 after last treatment” value ([1]; one value per dog) was “TR (TR = tumor recurrence) and NTR (4×)”. For the same molecule, the Repeat treatment required ([1]; one value per dog, Example 1 dogs) was “Day 28 (2×) and Nil (7×) and Day 29”, the RECIST classification [2] was “PR (partial response (PR, at least 30% decrease in the longest diameter of target lesion))” and the “Response of the five cases with leakage of IVP upon injection” value ([3]; SI-01, SI-02, SI-04, SI-05, SI-10, on or before the day 14 visit) was “complete response”. For the same molecule, the “Complete response: Cumulative %” value ([3]; Study day 7 (+2)) was 82%, the “Complete response: Number of tumors on given study day” value ([3]; Study day 7 (+2)) was 9 and the “Healing: Cumulative %” value ([3]; Study day 14 (+2)) was 9%. The “Healing: Number of tumor sites healed on given study day” value (“Healing: Number of tumor sites healed” for short) ([3]; Study day 14 (+2)) was 1, the “Complete response: Cumulative %” value ([3]; Study day 14 (+2)) was 91% and the “Complete response: Number of tumors on given study day” value ([3]; Study day 14 (+2)) was 1. The “Healing: Cumulative %” value ([3]; Study day 28 (+4)) was 55%, the “Healing: Number of tumor sites healed” value ([3]; Study day 28 (+4)) was 5 and the “Healing: Cumulative %” value ([3]; Study day 33) was 64%. For the same molecule, the “Healing: Number of tumor sites healed” value ([3]; Study day 33) was 1, the “Healing: Cumulative %” value ([3]; Study day 42) was 73% and the “Healing: Number of tumor sites healed” value ([3]; Study day 42) was 1. For the same molecule, the “Healing: Cumulative %” value ([3]; Study day 56) was 82%, the “Healing: Number of tumor sites healed” value ([3]; Study day 56) was 1 and the “Healing: Cumulative %” value ([3]; Study day 166) was 91%. The “Healing: Number of tumor sites healed” value ([3]; Study day 166) was 1, the “Change of tumor volumes after drug treatment” value ([3]; all tumors with the exception of SI-03) was “decreased in size” and the “Course of MCT despite drug treatment” value ([3]; case SI-03, withdrawn after day 28 visit) was “continued to enlarge”. For the same molecule, the “Additional healing time beyond the day 28 visit” value ([3]; case SI-11, tumor volume 6.8 cm^3 at day 0, dog licking site, debridement day 56) was 19.7 weeks, the “Status of the ten responding tumors on day 28 (+4)” value ([3]; investigator report) was “remained a CR” and the “Number of tumors with a complete response (CR) during the study” value ([3]; of 11 tumors) was “Ten”. For the same molecule, the “Percent of tumors with a complete response (CR) during the study” value ([3]; of 11 tumors) was 90.9%, the “Number of tumors considered CR by day 7 (+2)” value ([3]; of ten responding tumors) was “nine” and the “Number of tumors CR by day 14 (+2)” value ([3]; of ten responding tumors, not CR by day 7) was “one”. For the same molecule, the “Number of cases healed at the day 14 visit” value ([3]; tumor site healing) was “one” and the “Share of tumor sites healed by the day 28 visit” value ([3]; tumor site healing) was “over half”.
